For series [1], the system named is peripheral blood mononuclear cells (PBMC) stimulated with allogeneic PBMC or EBV-transformed human B cells (RPMI1788). The series is described as follows: Mixed lymphocyte reaction (MLR) assay. The format is cell-based. The procedure, abridged: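 Responder PBMC co-cultured in triplicate with 30 Gy-irradiated allogeneic PBMC or RPMI1788 B cells plus compound (DMSO stock 10 mM, diluted in medium). After 5 days at 37° C, 1 μCi [3H]-thymidine added for 16 h more; incorporated cpm counted and proliferation inhibition calculated.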

The subject of series [2] is production of human TNF-α by PBMC in response to LPS. The series is described as follows: TNF-α assay (LPS-stimulated PBMC, sandwich ELISA). The format is cell-based. In a few lines:
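Human PBMC isolated from heparinised blood by density gradient (10^6 cells/ml) stimulated with LPS at 1 μg/ml final, with test compound at 0.1, 1 and 10 μM, 72 h at 37° C, 5% CO2. Supernatant TNF-α quantified by sandwich ELISA against recombinant standard curve; % suppression calculated.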

The test system of series [3] is HCV replicon in Huh-5-2 cells. The series is described as follows: Anti-HCV assay/replicon assay (luciferase). As to conditions: Hepatitis C virus. The format is cell-based. The protocol: (§1) Huh-5-2 cells [a cell line with a persistent HCV replicon I3891uc-ubi-neo/NS3-3′/5.1; replicon with firefly luciferase-ubiquitin-neomycin phosphotransferase fusion protein and EMCV-IRES driven NS3-5B HCV polyprotein] was cultured in a RPMI medium (commercially available from Gibco) supplemented with 10% fetal calf serum, 2 mM L-glutamine (commercially available from Life Technologies), 1× non-essential amino acids (commercially available from Life Technologies); 100 IU/ml penicillin, 100 μg/ml streptomycin and 250 μg/ml G418 (Geneticin, commercially available from Life Technologies). Cells were seeded at a density of 7,000 cells per well in 96 well View Plate (commercially available from Packard) in a medium containing the same components as described above, except for G418. Cells were allowed to adhere and proliferate for 24 hours. […] Luciferase activity was measured by adding 50 μl of 1×Glo-lysis buffer (commercially available from Promega) for 15 minutes followed by 50 μl of the Steady-Glo Luciferase assay reagent (commercially available from Promega). Luciferase activity was measured with a luminometer and the signal in each individual well was expressed as a percentage of the untreated cultures. […] Instead the density of the culture was measured by means of the MTS method (commercially available from Promega). […]

Series [4] in a line: Cytostatic effect on Huh-5-2 cells (MTS method). The format is cell-based. As to conditions: human, 50% inhibition of cell growth. The protocol:
as §1

For series [5], the system named is production of human IL-1β by PBMC in response to LPS. The series is described as follows: IL-1β assay (LPS-stimulated PBMC, sandwich ELISA). The format is cell-based. To be noted: LPS 1 μg/ml, 72 hours. On the procedure:
Peripheral blood mononuclear cells (herein referred as PBMC), in response to stimulation by lipopolysaccharide (LPS), a gram-negative bacterial endotoxin, produce various […], in particular human IL-1β. Inhibition of the activation of PBMC can therefore be measured by the level of suppression of the production of IL-1β by PBMC in response to stimulation by LPS.
Such inhibition measurement was performed as follows: PBMC were isolated from heparinized peripheral blood by density gradient centrifugation over Lymphoprep (commercially available from Nycomed, Norway). LPS was then added to the PMBC suspension in complete medium (10^6 cells/ml) at a final concentration of 1 μg/ml. The pteridine derivative to be tested was added at different concentrations (0.1 μM, 1 μM and 10 μM) and the cells were incubated at 37° C. for 72 hours in 5% CO2. The supernatants were collected, then IL-1β concentrations were measured with an anti-IL-1β antibody in a sandwich ELISA. The calorimetric reading of the ELISA was measured by a Multiskan RC plate reader (commercially available from ThermoLabsystems, Finland) at 450 nm (reference wavelength: 690 nm). Data analysis was performed with Ascent software 2.6. (also from ThermoLabsystems, Finland): a standard curve (recombinant human IL-1β) was drawn and the amount (pg/ml) of each sample on the standard curve was determined.
The % suppression of human IL-1β by the pyrido[3,2-d]pyrimidine derivatives of this invention was calculated using the formula: [formula]

Series [6] has as its system phosphodiesterase-4 (PDE-4) extract from U937 cells. The series is described as follows: Phosphodiesterase-4 inhibiting activity (isotopic two-step method). As to conditions: 1.01 μM [3H]cAMP+cAMP. The format is biochemical.
Setting [7] is: Homo sapiens, RPMI-1788, 50% suppression of the MLR, [3H]-thymidine incorporation, read-out: MLR.
Where [8] appears, read: Homo sapiens, PBMC, LPS 1 μg/ml, 72 hours, read-out: TNF α.

Where two headings read alike, the source gives them in different places. Bounds are passed on as bounds.

In the case of `COc1ccc(-c2ccc3nc(N)nc(Nc4cccc(C)c4)c3n2)cc1OC` [Example 27, 2-amino-4-(3-methyl-anilino)-6-(3,4-dimethoxyphenyl)-pyrido[3,2-d]pyrimidine], the IC50 in series [1] (setting [7]) came to 5700 nM; in series [2] (setting [8]), 6.4 µM. The half-maximal effective concentration (EC50) in series [3] (Huh-5-2 replicon cells, 72 hours, read-out: EC50) was 500 nM. This compound displayed a half-maximal cytotoxic concentration (CC50) at 72 h in series [4] above 50000 nM.

In the case of `COc1ccc(-c2ccc3nc(N)nc(NCc4cccs4)c3n2)cc1OC` [Example 32, 2-amino-4-(thienyl-2-methylamino)-6-(3,4-dimethoxyphenyl)-pyrido[3,2-d]pyrimidine-2,4-diamine], the IC50 was determined as 800 nM in series [1] (50% suppression of the MLR, [3H]-thymidine incorporation, read-out: MLR); 0.8 µM in series [2] (LPS 1 μg/ml, 72 hours, read-out: TNF α); 6900 nM in series [5].

`COc1ccc(-c2ccc3nc(N)nc(N[C@H]4CC[C@H](N)CC4)c3n2)cc1OC` [Example 36]: the IC50 in series [1] (Homo sapiens, RPMI-1788, read-out: MLR (μM)) stood at 6500 nM; in series [2] (Homo sapiens, PBMC, 72 h, read-out: TNF α (μM)) it was 2.9 µM. Besides, the EC50 in series [3] (Huh-5-2, 72 h) amounted to 1000 nM. Moreover, in series [4], the midpoint of cytotoxicity, the CC50 at 72 h, lay at 7700 nM.

In the case of `COc1ccc(-c2ccc3nc(N)nc(N4CCOCC4)c3n2)cc1OC` [Example 41, 2-amino-4-morpholino-6-(3,4-dimethoxyphenyl)-pyrido[3,2-d]pyrimidine], the IC50 in series [1] (setting [7]) was 37 nM; in series [2] (setting [8]), 0.03 µM; in series [5] (Homo sapiens, PBMC), 7900 nM; in series [6], 410 nM.

On to `COc1ccc(-c2ccc3nc(N)nc(N4CCN(C(=O)Nc5cccc(C)c5)CC4)c3n2)cc1OC` [Example 42, 2-amino-4-(4-{[(3-methylphenyl)amino]carbonyl}piperazin-1-yl)-6-(3,4-dimethoxyphenyl)-pyrido[3,2-d]pyrimidine], for which the IC50 was found to be 0.064 nM in series [1] (setting [7]); 0.06 µM in series [2] (setting [8]); 1800 nM in series [5] (Homo sapiens, PBMC); 61 nM in series [6].

The record behind these values is patent US20090264415A2 (priority 2004, published 2009).
